Six compounds from patent US20160090351A1, “INHIBITORS OF DEUBIQUITINATING PROTEASES” (BRANDEIS UNIVERSITY, priority 2013, published 2016) can be followed below.

“Also recorded” adds a separate entry of the source. Read-outs that look alike come from different tables or passages of the source.

Data set [1] relates to ubiquitin-proteasome system. Nature of the data set: GFP-G76V-Ub assay in HEK 293T cells. Format: cell-based, human. To be noted: diphenyl carbonates 100 μM, bortezomib 20 μM, G5 2 μM. On the procedure:
FIG. 32 depicts data showing that diphenyl carbonates inhibit DUBs in HEK 293T cells. A. Viability of HEK 293T cells assessed by the propidium iodide exclusion method: diphenyl carbonate (100 μM), bortezomib (V, 20 μM) and G5 (2 μM). N≧3, mean+/−s.d. B. HEK 293T cells were treated with the stated compounds (50 μM) for 2 h and then assayed for the accumulation of K48-linked Ub species. C. As in A, but K63-linked Ub was assayed. D. HEK 293T cells were treated with C14, C15, C17, C18 (100 μM) or DMSO for 2 hours, then harvested, lysed and treated with HA-Ub-VS. After 30 min, lysates were analyzed by SDS-PAGE and probed for HA, tubulin and actin. An intervening lane was removed for clarity. E. HEK 293T cells expressing Ub-G76V-GFP were treated with diphenyl carbonates (100 μM), bortezomib (20 μM) and G5 (2 μM). […] N>3, Mean+/−s.d. See also FIG. 39.
FACS was carried out on a […] FACS-Calibur. For HEK 293T and K562, cells were resuspended by repeated pipetting/agitation of the incubation media, followed by dilution into PBS. For Cos-1, MCF-7, and CHO cells, media was removed and trypsin was added. Harvested cells were placed in FACS buffer (0.5% FBS in PBS with 3 μg/mL propidium iodide) 30 s prior to analysis. All data were analyzed using FlowJo V10, from TreeStar (Ashland, Oreg.). Approximately 2500 cells were sorted per replicate. Cells were sorted by propidium iodide dye exclusion to give a “viable population”. GFP positive cells within this group were identified relative to untransfected controls. Then the geometric mean of the whole GFP positive population within the viable population was calculated. Typical transfection efficiencies for G76V ubiquitin were 60-70% for both Cos-1 and HEK 293T and 25-40% for CHO cells, based on GFP positive cells.
The activity of the diphenylcarbonates in the GFP-G76V-Ub assay, which monitors flux through the ubiquitin-proteasome system, was also investigated. The G76V mutation creates an unstable Ub fusion protein that is degraded in a proteasome dependent process. GFP fluorescence increased when HEK 293T cells expressing GFP-G76V-Ub were treated with the proteasome inhibitor bortezomib and decreased upon treatment with G5 (FIG. 39). This decrease has been attributed to increased flux through the ubiquitin-proteasome system triggered by the accumulation of HMW-Ub. […] Perhaps the inability of the diphenylcarbonates to inhibit UCH-L1/3 accounts for the stability of GFP-G76V-Ub. This selectivity might also explain the low cytoxicity of these compounds relative to G5.

For a further data set, the system named is DUBs. The data set can be described thus: decomposition of high molecular weight ubiquitinated proteins (HMW-Ub) in lysates of HEK 293T cells expressing HA-Ub. It is filed as biochemical, human. Particulars: HEK 293T HA-Ub lysates, 37° C. The method, then: FIG. 30 depicts data showing that diphenylcarbonates inhibit the decomposition of high molecular weight ubiquitinated proteins (HMW-Ub). Lysates were prepared from HEK 293T cells expressing HA-ubiquitin. Samples were incubated at 37° C. and reactions were quenched by the addition of reducing Laemmli buffer. HMW-Ub was assessed by SDS-PAGE and immunoblotting with anti-HA antibody. A. Representative immunoblots measuring the decomposition of HMW-Ub in lysates treated with either the DMSO vehicle, G5 (10 μM) or C4 (500 μM). B. Plot of the decomposition of HMW-Ub in lysates treated with DMSO and C4 (500 μM) (N=2; error bars denote range). C. Inhibition of HMW-Ub decomposition by diphenylcarbonates. Lysates were treated with diphenylcarbonates (50 μM). “-” denotes no treatment; D, 1% DMSO vehicle; IU1, an USP14-specific inhibitor; Bort, bortezomib, a proteasome inhibitor. D. Representative decomposition of HMW-Ub after 2 h incubation in the presence of varying concentrations of C4. See also FIG. 36. E. Quantitation of D. The values of EC50 reported in FIG. 29B are the average and S.E.M. of at least 3 independent experiments. See also FIG. 37 and FIG. 38.
Cells overexpressing HA-ubiquitin were prepared as above. Pellets were typically stored at −80° C. until required, at which time they were thawed on ice. Cell lysis was performed in lysis buffer using a Dounce homogenizer (10 strokes, with grinding, on ice: typical yield approx. 2-5 mg protein per transfected T75 flask for HEK 293T cells; 1-3 mg protein from a T75 flask for Cos-1). Crude lysate was centrifuged at 17000 g for 10 min at 4° C., after which time the concentration of the lysate was normalized to 1 mg/mL. The lysate was aliquoted into PCR strip tubes (typical volumes 75-50 μL) and compound in DMSO was added to this to give a final concentration of DMSO of 1%. Tubes were briefly centrifuged, overlaid with Chill-out wax (50 μL) and placed in a PCR machine at 37° C. with heated lid set to 37° C. Aliquots (9 μL) were removed at the stated times and immediately quenched in (2× final concentration) reducing (dithiothreitol) loading buffer and frozen (−19° C.) till required. Western blot analysis was carried out using standard methods. Samples were resolved by SDS-PAGE, transferred to PVDF [(0.45 μm) (Towbin buffer, tank apparatus, 90 V 1 hour, then overnight at 30 V, 4° C.)] then blocked in 15% milk in TBS-T HS (100 mM Tris HCl, pH 7.6, 500 mM NaCl, 0.5% […]) for at least 2 hours at RT. Afterward, membrane was washed in TBS-T HS then probed with anti HA-HRP (1:18000) for 1.33 hours at RT. Membrane was washed 3 times in TBS-T HS (15 mins) then once in TBS (15 mins) and exposed to ECL II and visualized using blue biofilm. […] When required, membranes were stripped in 100 mM glycine pH 4, 500 mM NaCl, 1% SDS, 5 mM BME, at 55° C. for 19 mins, then analyzed.
Lysates were prepared from HEK 293T cells expressing N-terminally HA-tagged ubiquitin (HA-Ub) to facilitate the observation of ubiquitinated proteins. In the absence of a DUB inhibitor, the HMW-Ub pool decomposed with a half-life of 34 min (FIG. 30A,B). […] Similar results were obtained in lysates prepared from Cos-1 cells expressing HA-Ub.

The subject of data set [2] is G76V ubiquitin-GFP fusion protein. The data set can be described thus: G76V ubiquitin-GFP fusion protein fluorescence, Example 5. To be noted: Example 5, FIG. 9 bottom panel. Format: cell-based. On the procedure:
Cells treated with 4 (100 μM; as defined in FIG. 3) show PARP cleavage that indicates caspases are active. The fluorescence of G76V ubiquitin-GFP fusion protein increases in the presence of inhibitor 4 (as defined in FIG. 3), as expected if degradation […] due to inhibition of DUBs. In contrast, GFP fluorescence […] when the proteasome is inhibited by bortezomib.

The target in another data set is T1, USP9x (Homo sapiens, UniProt Q93008).
T1 construct: endogenous in cells; host or cells: K562 cell lysate
The data set can be described thus: HA-Ub-VS labeling in K562 cell lysates. To be noted: compound 40 minutes, then HA-Ub-VS (1.5 μM) 20 minutes. Format: biochemical. On the procedure:
HA-Ub-VS is commonly used to label DUBs in cell lysates. […] A. and B. K562 cell lysates were treated with compound for 40 minutes prior to activity labeling with HA-Ub-VS (1.5 μM) for 20 minutes. Samples were analyzed by SDS-PAGE and immunoblotting with anti-HA antibody. C. […] Values were derived by fitting to the in Prism.

The target of another data set is 20S proteasome (Homo sapiens, UniProt P28074). Nature of the data set: proteasome activity (purified 20S proteasome; GFP-Ub (G76V) in Cos-1 cells). It is filed as biochemical. Particulars: 20S proteasome 30 minutes, Suc-Leu-Tyr-AMC 100 μM; Cos-1 GFP-Ub (G76V) 8 hours. The method, then: A. Purified 20S proteasome was treated with compound for 30 minutes prior to addition of substrate (Suc-Leu-Tyr-AMC, 100 μM). B. Cos-1 cells expressing with GFP-Ub (G76V) were treated with compound for 8 hours, then the level of GFP was measured by flow cytometry.

A further data set relates to B16/F10 cells. Nature of the data set: proliferation and cell cycle of B16/F10 cells. It is filed as cell-based, mouse. To be noted: 72 h, flow cytometry. A general note: A flow cytometer gives signals particle by particle.
The subject of a further data set is Bcr-Abl kinase. The data set can be described thus: Bcr-Abl levels in K562 cells by immunoblotting. Format: cell-based, human. Particulars: TU50 4 hours. The method, then:
(§1) K562 cells are from a myelogenous leukemia line that expresses Bcr-Abl kinase. A. K562 cells were treated with TU50 for 24 hours after which time the cells were treated with annexin V-FITC and propidium iodide. Cells were then analyzed by flow cytometry. Cells showing only annexin V-FITC were considered apoptotic whereas cells showing both annexin V-FITC and propidium iodide were considered necrotic. N=2. All points show a significant difference to the vehicle (DMSO) with p<0.05. […] All points show a significant difference to vehicle (DMSO) with p<0.02. C. Same as A, but the incubation period was 8 hours. N>2. All points show a significant difference to DMSO with p<0.02. D, K562 cells were treated with TU50 for 4 hours. Samples were analyzed by SDS-PAGE and immunoblotting with anti-Bcr-Abl antibody. E. Quantitation of blot in D. The signal for tubulin was used to normalize the Bcr-Abl signal. N=3.
FIG. 34 depicts data showing that diphenylcarbonates cause the accumulation of HMW-Ub and reduce the levels of Bcr-Abl in K562 cells. A. K562 cells were treated with diphenyl carbonates (50 μM) for 2 h and then assayed for the accumulation of K48-linked Ub. B. As in A, but Bcr-Abl was measured by immunoblotting with anti-Abl antibodies. C. K562 cells were treated with C17 (50 μM) in the presence and absence of bortezomib (6 μM) for 4 hours and Bcr-Abl was measured by immunblotting with anti-Abl antibodies. D. Quantitation of blot in C. Significance: DMSO relative to C17 and bortezomib p=0.002; DMSO relative to C17, p=0.03. E. K562 cells were treated with C15 for 4 hours then analyzed for SMAD4 monoubiquitination by western blot. F. Quantitation of blots in A. (N=3). See also FIG. 40.
(§2) FIG. 40 depicts data showing that diphenyl carbonates induce the degradation of Bcr-Abl kinase. A. K562 cells were treated with C17 for 24 h (1 dose) then analyzed for Bcr-Abl expression by western blot with anti-Abl antibody. B. Quantitation of blots in A normalized to actin. C. K562 cells were treated with C17 for 24 h then the amount of cells in G1 and apoptosis were recorded (N=3). D. K562 were treated with C15 for 4 h then analyzed for Bcr-Abl expression using western blot. E. Quantitation of Bcr-Abl from D normalized to tubulin (N=4). F. Same K562 lysates were separately analyzed for K63-linked ubiquitin. G. Quantitation of blots in F (N=4). Differences between all bars is significant p<0.01). H. K562 cells were treated with C15 for 24 h after which time cells were fixed in ethanol, treated with propodium iodide/RNAse then analyzed by FACS. Viability was calculated using forward and side scatter. I. Same experiment as H but red fluorescence was measured to determine DNA content
Transfected cells were harvested 1.5 days post transfection. […] Typically clarified lysate was analyzed.
Background: Immunoblotting shows a protein as a band on a membrane.

The next data set concerns K562 cells. The data set can be described thus: apoptosis, cell cycle and viability of K562 cells by flow cytometry. It is filed as cell-based, human. Particulars: annexin V-FITC / propidium iodide, 24 hours (TU50 also 8 hours). The method, then:
as §1, §2

For data set [3], the system named is MCF7 cells. The data set can be described thus: viability and cell cycle of MCF7 cells (Alamar Blue, FACS). To be noted: Alamar Blue.
Method: (§3) MCF7 cells were dosed every 2 hours with the indicated concentration of C15. After 6 hours, cells were lysed by freeze thaw and then sonicated in 0.5% SDS. […] MCF7 cells were treated under the stated conditions then analyzed for cell cycle. […] G. Cells treated with C17 (25 μM), dosed every 24 hours. H. Cells treated with C17 (50 μM), dosed every 24 hours. […] These cells were left for 72 h (single dose) after which time the total number of viable cells was analyzed using Alamar Blue®. All data are n≧4 showing mean+/−s.e.m. K. MCF7 cells were plated with C17 for 24 hours after which time the total number of viable cells was measured by Alamar Blue®.
(§4) All cells were grown at 37° C. in a 5% CO2 humidified atmosphere in DMEM supplemented with 10% heat inactivated FBS, 1× glutamax, and 1× penicillin/streptomycin. […] Proliferation assays were conducted by plating cells at 5% confluence in 96 well plates together with compound or 0.1% DMSO. Cells were allowed to grow for 72 hours (a 24 h dosing regimen was used for carbonate compounds) and then Alamar Blue® was added and number of cells was measured by fluorescence on a microplate reader.
Data set [4] deals with MCF7 cells.
Method: as §3, §4

T1 sequence (Q93008 whole entry): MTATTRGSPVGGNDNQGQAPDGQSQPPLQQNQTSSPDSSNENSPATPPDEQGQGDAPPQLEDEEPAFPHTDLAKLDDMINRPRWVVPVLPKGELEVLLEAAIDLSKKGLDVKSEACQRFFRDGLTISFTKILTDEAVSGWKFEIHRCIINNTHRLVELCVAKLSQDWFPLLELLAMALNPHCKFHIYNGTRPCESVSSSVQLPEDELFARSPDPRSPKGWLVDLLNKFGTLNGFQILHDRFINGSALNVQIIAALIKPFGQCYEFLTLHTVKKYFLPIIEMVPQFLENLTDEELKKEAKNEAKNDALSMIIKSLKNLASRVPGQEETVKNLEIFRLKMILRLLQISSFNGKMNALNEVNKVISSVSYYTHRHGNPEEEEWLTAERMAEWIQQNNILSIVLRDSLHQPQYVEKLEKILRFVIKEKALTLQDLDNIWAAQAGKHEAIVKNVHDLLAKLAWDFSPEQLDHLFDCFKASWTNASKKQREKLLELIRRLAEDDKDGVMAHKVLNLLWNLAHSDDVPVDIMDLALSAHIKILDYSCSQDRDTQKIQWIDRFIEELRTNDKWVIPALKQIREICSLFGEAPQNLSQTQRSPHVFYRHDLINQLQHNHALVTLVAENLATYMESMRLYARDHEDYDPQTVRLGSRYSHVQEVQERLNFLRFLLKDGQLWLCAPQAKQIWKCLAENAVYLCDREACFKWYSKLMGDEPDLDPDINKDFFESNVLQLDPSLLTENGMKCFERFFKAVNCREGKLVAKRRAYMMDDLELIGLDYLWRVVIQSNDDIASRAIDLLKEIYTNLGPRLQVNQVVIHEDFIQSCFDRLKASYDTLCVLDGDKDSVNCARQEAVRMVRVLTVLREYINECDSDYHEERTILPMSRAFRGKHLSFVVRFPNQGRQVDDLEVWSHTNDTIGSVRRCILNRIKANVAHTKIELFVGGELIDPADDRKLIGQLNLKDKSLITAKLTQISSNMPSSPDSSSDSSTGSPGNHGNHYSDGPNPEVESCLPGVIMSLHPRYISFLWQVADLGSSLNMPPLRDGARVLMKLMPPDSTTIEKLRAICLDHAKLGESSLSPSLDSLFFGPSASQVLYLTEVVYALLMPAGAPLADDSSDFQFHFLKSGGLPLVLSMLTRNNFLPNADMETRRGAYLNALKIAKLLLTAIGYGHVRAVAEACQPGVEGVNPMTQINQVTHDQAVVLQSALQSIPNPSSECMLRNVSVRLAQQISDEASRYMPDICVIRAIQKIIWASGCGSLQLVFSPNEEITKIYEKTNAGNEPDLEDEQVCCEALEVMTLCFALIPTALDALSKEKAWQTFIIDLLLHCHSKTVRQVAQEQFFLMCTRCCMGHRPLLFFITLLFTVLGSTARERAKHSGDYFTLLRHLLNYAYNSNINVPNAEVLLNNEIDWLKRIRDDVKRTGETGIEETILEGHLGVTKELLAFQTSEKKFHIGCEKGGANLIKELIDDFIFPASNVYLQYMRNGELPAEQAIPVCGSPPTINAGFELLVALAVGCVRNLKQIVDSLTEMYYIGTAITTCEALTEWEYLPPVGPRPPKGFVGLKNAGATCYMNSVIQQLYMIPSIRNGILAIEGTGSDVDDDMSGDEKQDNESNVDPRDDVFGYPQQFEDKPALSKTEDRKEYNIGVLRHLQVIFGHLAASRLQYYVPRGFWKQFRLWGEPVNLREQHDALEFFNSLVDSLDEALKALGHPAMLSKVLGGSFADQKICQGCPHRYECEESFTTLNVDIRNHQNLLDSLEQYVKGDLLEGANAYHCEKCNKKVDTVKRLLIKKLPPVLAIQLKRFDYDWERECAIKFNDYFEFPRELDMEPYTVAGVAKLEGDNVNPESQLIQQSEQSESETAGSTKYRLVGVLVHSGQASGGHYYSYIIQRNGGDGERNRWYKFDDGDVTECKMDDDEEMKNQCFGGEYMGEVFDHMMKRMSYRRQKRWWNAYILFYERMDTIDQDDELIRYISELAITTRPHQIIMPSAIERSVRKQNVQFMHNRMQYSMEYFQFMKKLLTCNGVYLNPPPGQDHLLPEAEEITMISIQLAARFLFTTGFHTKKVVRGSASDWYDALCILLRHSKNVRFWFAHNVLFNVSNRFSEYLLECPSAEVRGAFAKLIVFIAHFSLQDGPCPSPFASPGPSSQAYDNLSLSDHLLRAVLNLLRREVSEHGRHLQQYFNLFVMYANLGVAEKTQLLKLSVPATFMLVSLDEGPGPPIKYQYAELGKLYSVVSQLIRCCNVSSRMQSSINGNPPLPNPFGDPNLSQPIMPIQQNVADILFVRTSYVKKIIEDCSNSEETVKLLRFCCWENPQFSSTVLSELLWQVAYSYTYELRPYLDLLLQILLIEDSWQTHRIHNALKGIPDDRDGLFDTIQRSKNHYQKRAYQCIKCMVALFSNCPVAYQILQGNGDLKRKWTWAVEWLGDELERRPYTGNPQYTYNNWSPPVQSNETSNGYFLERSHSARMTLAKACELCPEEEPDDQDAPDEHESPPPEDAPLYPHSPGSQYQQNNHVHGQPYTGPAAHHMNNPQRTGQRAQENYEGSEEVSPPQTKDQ
Method for B16/F10 cells: A. MCF7 cells were treated with C17 for 4 h and Mdm2 levels were measured. B. As in A, P53 measured. C. As in A, P21 measured. D. MCF7 and B16/F10 cells were treated with C17 every 24 hours. After 72 hours, the number of viable cells was measured by Alamar Blue®.
MCF7 cells were dosed every 2 hours with the indicated concentration of C15. After 6 hours, cells were lysed by freeze thaw and then sonicated in 0.5% SDS. A. Total lysates were blotted for K48-linked ubiquitin and actin. B. Normalized K48-linked ubiquitin signal was plotted as a function of concentration of C15 (N=2). C. […] Doxorubicin (Dox) is a DNA damaging agent that serves as a positive control for the induction of P53. D. Quantitation of P53 levels in C relative to actin (N=2). […] MCF7 cells were treated under the stated conditions then analyzed for cell cycle. F. DMSO treated cells. G. Cells treated with C17 (25 μM), dosed every 24 hours. H. Cells treated with C17 (50 μM), dosed every 24 hours. […] These cells were left for 72 h (single dose) after which time the total number of viable cells was analyzed using Alamar Blue®. All data are n≧4 showing mean+/−s.e.m. K. MCF7 cells were plated with C17 for 24 hours after which time the total number of viable cells was measured by Alamar Blue®. L. B16/F10 cells were treated with DMSO, C17 or P005091 for 72 h. […] After this time, cells were analyzed by flow cytometry.
All cells were grown at 37° C. in a 5% CO2 humidified atmosphere in DMEM supplemented with 10% heat inactivated FBS, 1× glutamax, and 1× penicillin/streptomycin. […] Typically clarified lysate was analyzed. […] Lysates were centrifuged (20 000 rpm, microcentrifuge, Eppendorf 5417 C) concentration was measured, then 0.1% SDS was added and lysates were sonicated for a total of 30 s (in 10 s bursts). Protein concentration was determined using Bradford assay with IgG as standard and analyzed by western blot as delineated below {[9 μg total protein for K48-linked ubiquitin (1:9000 antibody dilution), SMAD4 (1:500) or PARP (1:1000)]; [30-40 μg was loaded for K63-linked ubiquitin (1:1500), Mdm2 (1:1000) or Abl (1:1500). […]

As for `CC(C)C[C@H](NC(=O)[C@H](Cc1ccccc1)NC(=O)c1cnccn1)B(O)O` [bortezomib, reference compound], the GFP fluorescence entry in [1] is recorded as “Only bortezomib treatment caused an increase in GFP fluorescence; also recorded: increased”. In addition, in the data set with DUBs, the “stabilization of the HMW-Ub pool” value is listed as “failed to stabilize the HMW-Ub pools”. The “GFP fluorescence of G76V ubiquitin-GFP” value in data set [2] was “decreases”. Usually EC50 stands for the concentration that produces a half-maximal response. A high value points to a less potent agent. As for `CC(C)(C)OC(=O)NCCc1ccc(N=C=S)cc1` [TU46], a half-maximal effect on USP9x (EC50) was put at 11 ± 4 µM. Moreover, the “effect on proteasome activity” value on 20S proteasome is “no effect on proteasome activity”. As for `CC(=O)c1cc([N+](=O)[O-])c(Sc2cccc(Cl)c2Cl)s1` [Compound P005091, reference compound], the cell cycle distribution entry in the data set on B16/F10 cells was “decrease in cells in G1 phase and an increase in G2”.

As for `O=C(NCc1ccc(N=C=S)cc1)OCc1ccccc1` [TU49], the Bcr-Abl kinase level entry with Bcr-Abl kinase is “cause degradation of Bcr-Abl kinase”. In the data set on K562 cells, the “apoptosis of K562 cells” value is “induce apoptosis of K562 cells”. The “effect on proteasome activity” value at 20S proteasome was “no effect on proteasome activity”. Take `Oc1ccc2ccccc2c1` [Compound 2-Naphthol, 2-Naphthol]: the “cytotoxicity after single dose, 72 h” value in the data set with MCF7 cells [3] is “not cytotoxic”. For the compound `NCc1ccc(O)cc1` [aminomethylphenol, 4-(aminomethyl)phenol], in the data set on MCF7 cells [4], the “cytotoxicity after single dose, 72 h” value is “not cytotoxic”.
